Measurements reported in PubChem BioAssay AID2060498 (Molecular Pharmacology Branch, DTP, NCI, 2025).

Tested on: 171881-019-R-J1-PDC tumor spheroids, viability
Test: Anticancer human tumor 171881-019-R-J1-PDC patient-derived invasive breast carcinoma cell line growth inhibition [GQUAD]
Settings: spheroids with HUVEC and MSC; for IC50: curve of first compound; for viability, T/C: stronger effect = lower value; active means viability on the fitted dose curve at most 10% of control; inactive means the rest
Method in brief: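 Viability of tumor cells grown as complex spheroids with endothelial and stromal cells, exposed to drug combinations. Top concentration at or near clinical Cmax (else 10 microM), diluted in half-log increments.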

[1] = second compound 0.0316 µM, first compound 0.0316 µM
[2] = second compound 0.0316 µM, first compound 0.1 µM
[3] = second compound 0.0316 µM, first compound 0.316 µM
[4] = second compound 0.0316 µM, first compound 1 µM
[5] = second compound 0.0316 µM, first compound 3.16 µM
[6] = second compound 0.0316 µM, first compound 10 µM
[7] = second compound 0.1 µM, first compound 0.0316 µM
[8] = second compound 0.1 µM, first compound 0.1 µM
[9] = second compound 0.1 µM, first compound 0.316 µM
[10] = second compound 0.1 µM, first compound 1 µM
[11] = second compound 0.1 µM, first compound 3.16 µM
[12] = second compound 0.1 µM, first compound 10 µM
[13] = second compound 0.316 µM, first compound 0.0316 µM
[14] = second compound 0.316 µM, first compound 0.1 µM
[15] = second compound 0.316 µM, first compound 0.316 µM
[16] = second compound 0.316 µM, first compound 1 µM
[17] = second compound 0.316 µM, first compound 3.16 µM
[18] = second compound 0.316 µM, first compound 10 µM
[19] = second compound 1 µM, first compound 0.0316 µM
[20] = second compound 1 µM, first compound 0.1 µM
[21] = second compound 1 µM, first compound 0.316 µM
[22] = second compound 1 µM, first compound 1 µM
[23] = second compound 1 µM, first compound 3.16 µM
[24] = second compound 1 µM, first compound 10 µM
[25] = second compound 3.16 µM, first compound 0.0316 µM
[26] = second compound 3.16 µM, first compound 0.1 µM
[27] = second compound 3.16 µM, first compound 0.316 µM
[28] = second compound 3.16 µM, first compound 1 µM
[29] = second compound 3.16 µM, first compound 3.16 µM
[30] = second compound 3.16 µM, first compound 10 µM
[31] = second compound 10 µM, first compound 0.0316 µM
[32] = second compound 10 µM, first compound 0.1 µM
[33] = second compound 10 µM, first compound 0.316 µM
[34] = second compound 10 µM, first compound 1 µM
[35] = second compound 10 µM, first compound 3.16 µM
[36] = second compound 10 µM, first compound 10 µM
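Wherever viability, T/C is given: 100% = DMSO vehicle control viability.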

C#Cc1c(F)ccc2cc(O)cc(-c3ncc4c(N5CC6CCC(C5)N6)nc(OCC56CCCN5CC(F)C6)nc4c3F)c12 (stereo unspecified) + Cc1cnc(CNC(=O)c2c(=O)c3ccc(N4CCCN(C)CC4)nc3n3c2sc2ccccc23)cn1
148 nM: IC50 (second compound 10 µM)
inactive: viability, T/C [1] 96.7% | viability, T/C [2] 71.8% | viability, T/C [3] 52.7% | viability, T/C [4] 42.3% | viability, T/C [5] 29.4% | viability, T/C [6] 26% | viability, T/C [7] 75.7% | viability, T/C [8] 66% | viability, T/C [9] 52% | viability, T/C [10] 41.3% | viability, T/C [11] 30.1% | viability, T/C [12] 27.4% | viability, T/C [13] 68% | viability, T/C [14] 62.3% | viability, T/C [15] 51.7% | viability, T/C [16] 42% | viability, T/C [17] 37.1% | viability, T/C [18] 32.3% | viability, T/C [19] 64.6% | viability, T/C [20] 56.9% | viability, T/C [21] 55.6% | viability, T/C [22] 44.2% | viability, T/C [23] 41% | viability, T/C [24] 40.9% | viability, T/C [25] 60.3% | viability, T/C [26] 52.5% | viability, T/C [27] 52.9% | viability, T/C [28] 44.3% | viability, T/C [29] 41.5% | viability, T/C [30] 41.5% | viability, T/C [31] 52.1% | viability, T/C [32] 54.5% | viability, T/C [33] 49.4% | viability, T/C [34] 41.2% | viability, T/C [35] 44.8% | viability, T/C [36] 43.5%
425 nM: IC50 (second compound 0.0316 µM)
403 nM: IC50 (second compound 0.1 µM)
286 nM: IC50 (second compound 3.16 µM)
405 nM: IC50 (second compound 0.316 µM)
482 nM: IC50 (second compound 1 µM)

CC(=O)O[C@H]1C(=O)[C@@]2(C)[C@H]([C@H](OC(=O)c3ccccc3)[C@]3(O)C[C@H](OC(=O)[C@H](O)[C@@H](NC(=O)c4ccccc4)c4ccccc4)C(C)=C1C3(C)C)[C@]1(OC(C)=O)CO[C@@H]1C[C@@H]2O + Cc1cnc(CNC(=O)c2c(=O)c3ccc(N4CCCN(C)CC4)nc3n3c2sc2ccccc23)cn1
inactive: viability, T/C [1] 37.4% | viability, T/C [2] 29.4% | viability, T/C [3] 27.8% | viability, T/C [4] 26% | viability, T/C [5] 24.2% | viability, T/C [6] 26.7% | viability, T/C [7] 43.9% | viability, T/C [8] 38% | viability, T/C [9] 31.3% | viability, T/C [10] 33.2% | viability, T/C [11] 31.9% | viability, T/C [12] 32.9% | viability, T/C [13] 51.2% | viability, T/C [14] 44.1% | viability, T/C [15] 39.5% | viability, T/C [16] 35% | viability, T/C [17] 37.1% | viability, T/C [18] 38.5% | viability, T/C [19] 51.9% | viability, T/C [20] 45.4% | viability, T/C [21] 47% | viability, T/C [22] 40.1% | viability, T/C [23] 45% | viability, T/C [24] 50.5% | viability, T/C [25] 51.9% | viability, T/C [26] 46.5% | viability, T/C [27] 47% | viability, T/C [28] 44.2% | viability, T/C [29] 50.8% | viability, T/C [30] 49.9% | viability, T/C [31] 46.6% | viability, T/C [32] 48.4% | viability, T/C [33] 46% | viability, T/C [34] 47.6% | viability, T/C [35] 50.3% | viability, T/C [36] 51.9%
< 31.6 nM: IC50 (second compound 0.0316 µM) | IC50 (second compound 0.1 µM) | IC50 (second compound 0.316 µM) | IC50 (second compound 1 µM) | IC50 (second compound 3.16 µM) | IC50 (second compound 10 µM)

Cc1[nH]c2ccccc2c1CCNCc1ccc(/C=C/C(=O)NO)cc1 + Cc1cnc(CNC(=O)c2c(=O)c3ccc(N4CCCN(C)CC4)nc3n3c2sc2ccccc23)cn1
43.3 nM: IC50 (second compound 0.0316 µM)
inactive: viability, T/C (second compound 0.0316 µM, first compound 0.000999 µM) 108% | viability, T/C (second compound 0.0316 µM, first compound 0.00316 µM) 89.9% | viability, T/C (second compound 0.0316 µM, first compound 0.00999 µM) 81.7% | viability, T/C [1] 61.3% | viability, T/C (second compound 0.0316 µM, first compound 0.0999 µM) 26.1% | viability, T/C (second compound 0.1 µM, first compound 0.000999 µM) 89.1% | viability, T/C (second compound 0.1 µM, first compound 0.00316 µM) 75.4% | viability, T/C (second compound 0.1 µM, first compound 0.00999 µM) 69.1% | viability, T/C [7] 66.9% | viability, T/C (second compound 0.1 µM, first compound 0.0999 µM) 24.9% | viability, T/C (second compound 0.316 µM, first compound 0.000999 µM) 75.3% | viability, T/C (second compound 0.316 µM, first compound 0.00316 µM) 71.1% | viability, T/C (second compound 0.316 µM, first compound 0.00999 µM) 71.2% | viability, T/C [13] 58.9% | viability, T/C (second compound 0.316 µM, first compound 0.0999 µM) 26.6% | viability, T/C (second compound 1 µM, first compound 0.000999 µM) 71.9% | viability, T/C (second compound 1 µM, first compound 0.00316 µM) 61.2% | viability, T/C (second compound 1 µM, first compound 0.00999 µM) 64% | viability, T/C [19] 62.9% | viability, T/C (second compound 1 µM, first compound 0.0999 µM) 23.4% | viability, T/C (second compound 3.16 µM, first compound 0.000999 µM) 60.9% | viability, T/C (second compound 3.16 µM, first compound 0.00316 µM) 57.4% | viability, T/C (second compound 3.16 µM, first compound 0.00999 µM) 67.8% | viability, T/C [25] 55.9% | viability, T/C (second compound 3.16 µM, first compound 0.0999 µM) 12.2% | viability, T/C (second compound 10 µM, first compound 0.000999 µM) 57.4% | viability, T/C (second compound 10 µM, first compound 0.00316 µM) 61.3% | viability, T/C (second compound 10 µM, first compound 0.00999 µM) 57.1% | viability, T/C [31] 58.1%
43.4 nM: IC50 (second compound 0.316 µM)
37.2 nM: IC50 (second compound 3.16 µM)
active: viability, T/C [3] 0.61% | viability, T/C [9] 0.91% | viability, T/C [15] 0.83% | viability, T/C [21] 0.22% | viability, T/C [27] 0.93% | viability, T/C (second compound 10 µM, first compound 0.0999 µM) 3.88% | viability, T/C [33] 0.37%
46 nM: IC50 (second compound 1 µM)
47.5 nM: IC50 (second compound 0.1 µM)
37.6 nM: IC50 (second compound 10 µM)
